Where two headings read alike, the source gives them in different places.
Legend:
[1] = test system: calf thymus (CT) DNA; settings: [PBD]:[DNA] molar ratio 1:5; literature value; listed as SJC-136; cited from earlier work
[2] = test system: calf thymus (CT) DNA; assay: Thermal denaturation studies; assay type: binding; settings: [PBD]:[DNA] molar ratio 1:5; CT-DNA 100 μM, ligand 20 μM; sodium phosphate buffer pH 7.00
Method: The DNA binding affinity of the C2-Fluoro substituted piperazine linked pyrrolo[2,1c][1,4]benzodiazepine dimers were subjected to thermal denaturation studies using calf thymus (CT) DNA (Jones, G. B.; Davey, C. L.; Jenkins, T. C.; Kamal, A.; Kneale, G. G.; Neidle, S.; Webster, G. D.; Thurston, D. E. Anti-cancer Drug Des. 1990, 5, 249. McConnaughie, A. W.; Jenkins, T. C. J. Med. Chem. 1995, 38, 3488). The studies for these compounds (IXa-f) were carried out by DNA/ligand molar ratio is 1:5 the increase in the helix melting temperature (ΔTm) for each compound was examined at 0 h. […] Data for DSB-120 and SJG-136 are included in Table-3 for comparison. The synthetic DC-81 dimer (DSB-120) gives a ΔTm 10.2° C. and SJC-136 gives a […]Tm of 25° C. under identical experimental condition.

[3] = test system: A549/ATCC; assay: NCI in vitro anticancer screen (SRB); assay type: cell-based, human; settings: Non-small cell lung, 48 h exposure
Method: (§1) The above compounds were evaluated for in vitro anticancer activity against sixty human tumor cells derived from nine cancer types (leukemia, non small cell cancer, colon cancer CNS cancer, melanoma, ovarian cancer renal cancer, prostate cancer and breast cancer) as per NCI protocol. For each compound, dose response curves for each cell line were measured at a minimum of five concentrations at 10-fold dilution. A protocol of 48 h continuous drug exposure was used, and a sulforhodamine B (SRB) protein assay was used to estimate cell viability or growth. The concentration causing 50% cell growth inhibition (GI50), total cell growth inhibition (TGI, 0% growth) and 50% cell death (LC-50% growth) compared with the control was calculated.

[4] = test system: NCI-H460; assay: NCI in vitro anticancer screen (SRB); assay type: cell-based, human; settings: Non-small cell lung, 48 h exposure
Method: as §1

[5] = test system: KM12; assay: NCI in vitro anticancer screen (SRB); assay type: cell-based, human; settings: Colon, 48 h exposure
Method: as §1

[6] = test system: SNB-75; assay: NCI in vitro anticancer screen (SRB); assay type: cell-based, human; settings: CNS, 48 h exposure
Method: as §1

[7] = test system: SR; assay: NCI in vitro anticancer screen (SRB); assay type: cell-based, human; settings: Leukemia, 48 h exposure
Method: as §1

[8] = test system: 786-0; assay: NCI in vitro anticancer screen (SRB); assay type: cell-based, human; settings: Renal, 48 h exposure
Method: as §1

[9] = test system: SK-MEL-5; assay: NCI in vitro anticancer screen (SRB); assay type: cell-based, human; settings: Melanoma, 48 h exposure
Method: as §1

[10] = test system: UACC-62; assay: NCI in vitro anticancer screen (SRB); assay type: cell-based, human; settings: Melanoma, 48 h exposure
Method: as §1

[11] = test system: SK-MEL-28; assay: NCI in vitro anticancer screen (SRB); assay type: cell-based, human; settings: Melanoma, 48 h exposure
Method: as §1

[12] = test system: BT-549; assay: NCI in vitro anticancer screen (SRB); assay type: cell-based, human; settings: Breast, 48 h exposure
Method: as §1

[13] = test system: HS 578T; assay: NCI in vitro anticancer screen (SRB); assay type: cell-based, human; settings: Breast, 48 h exposure
Method: as §1

[14] = test system: OVCAR-8; assay: NCI in vitro anticancer screen (SRB); assay type: cell-based, human; settings: Ovarian, 48 h exposure
Method: as §1

[15] = test system: SNB-19; assay: NCI in vitro anticancer screen (SRB); assay type: cell-based, human; settings: CNS, 48 h exposure
Method: as §1

[16] = test system: A498; assay: NCI in vitro anticancer screen (SRB); assay type: cell-based, human; settings: Renal, 48 h exposure
Method: as §1

[17] = test system: HOP-92; assay: NCI in vitro anticancer screen (SRB); assay type: cell-based, human; settings: Non-small cell lung, 48 h exposure
Method: as §1

[18] = test system: NCI-H322M; assay: NCI in vitro anticancer screen (SRB); assay type: cell-based, human; settings: Non-small cell lung, 48 h exposure
Method: as §1

[19] = test system: LOX IMVI; assay: NCI in vitro anticancer screen (SRB); assay type: cell-based, human; settings: Melanoma, 48 h exposure
Method: as §1

[20] = test system: CAKI-1; assay: NCI in vitro anticancer screen (SRB); assay type: cell-based, human; settings: Renal, 48 h exposure
Method: as §1

[21] = test system: SF-539; assay: NCI in vitro anticancer screen (SRB); assay type: cell-based, human; settings: CNS, 48 h exposure
Method: as §1

[22] = test system: SW-620; assay: NCI in vitro anticancer screen (SRB); assay type: cell-based, human; settings: Colon, 48 h exposure
Method: as §1

[23] = test system: MDA-MB-435; assay: NCI in vitro anticancer screen (SRB); assay type: cell-based, human; settings: Breast, 48 h exposure
Method: as §1

[24] = test system: COLO 205; assay: NCI in vitro anticancer screen (SRB); assay type: cell-based, human; settings: Colon, 48 h exposure
Method: as §1

[25] = test system: PC-3; assay: NCI in vitro anticancer screen (SRB); assay type: cell-based, human; settings: Prostate, 48 h exposure
Method: as §1

[26] = test system: HCC-2998; assay: NCI in vitro anticancer screen (SRB); assay type: cell-based, human; settings: Colon, 48 h exposure
Method: as §1

[27] = test system: TK-10; assay: NCI in vitro anticancer screen (SRB); assay type: cell-based, human; settings: Renal, 48 h exposure
Method: as §1

[28] = test system: RXF 393; assay: NCI in vitro anticancer screen (SRB); assay type: cell-based, human; settings: Renal, 48 h exposure
Method: as §1

[29] = test system: MALME-3M; assay: NCI in vitro anticancer screen (SRB); assay type: cell-based, human; settings: Melanoma, 48 h exposure
Method: as §1

[30] = test system: IGROV1; assay: NCI in vitro anticancer screen (SRB); assay type: cell-based, human; settings: Ovarian, 48 h exposure
Method: as §1

[31] = test system: M14; assay: NCI in vitro anticancer screen (SRB); assay type: cell-based, human; settings: Melanoma, 48 h exposure
Method: as §1

[32] = test system: NCI-H522; assay: NCI in vitro anticancer screen (SRB); assay type: cell-based, human; settings: Non-small cell lung, 48 h exposure
Method: as §1

[33] = test system: DU-145; assay: NCI in vitro anticancer screen (SRB); assay type: cell-based, human; settings: Prostate, 48 h exposure
Method: as §1

[34] = test system: CCRF-CEM; assay: NCI in vitro anticancer screen (SRB); assay type: cell-based, human; settings: Leukemia, 48 h exposure
Method: as §1

[35] = test system: HCT-116; assay: NCI in vitro anticancer screen (SRB); assay type: cell-based, human; settings: Colon, 48 h exposure
Method: as §1

[36] = test system: RPMI-8226; assay: NCI in vitro anticancer screen (SRB); assay type: cell-based, human; settings: Leukemia, 48 h exposure
Method: as §1

[37] = test system: HOP-62; assay: NCI in vitro anticancer screen (SRB); assay type: cell-based, human; settings: Non-small cell lung, 48 h exposure
Method: as §1

[38] = test system: SK-OV-3; assay: NCI in vitro anticancer screen (SRB); assay type: cell-based, human; settings: Ovarian, 48 h exposure
Method: as §1

[39] = test system: T-47D; assay: NCI in vitro anticancer screen (SRB); assay type: cell-based, human; settings: Breast, 48 h exposure
Method: as §1

[40] = test system: HT29; assay: NCI in vitro anticancer screen (SRB); assay type: cell-based, human; settings: Colon, 48 h exposure
Method: as §1

[41] = test system: HL-60(TB); assay: NCI in vitro anticancer screen (SRB); assay type: cell-based, human; settings: Leukemia, 48 h exposure
Method: as §1

[42] = test system: OVCAR-5; assay: NCI in vitro anticancer screen (SRB); assay type: cell-based, human; settings: Ovarian, 48 h exposure
Method: as §1

[43] = test system: U251; assay: NCI in vitro anticancer screen (SRB); assay type: cell-based, human; settings: CNS, 48 h exposure
Method: as §1

[44] = test system: SF-268; assay: NCI in vitro anticancer screen (SRB); assay type: cell-based, human; settings: CNS, 48 h exposure
Method: as §1

[45] = test system: OVCAR-3; assay: NCI in vitro anticancer screen (SRB); assay type: cell-based, human; settings: Ovarian, 48 h exposure
Method: as §1

[46] = test system: MOLT-4; assay: NCI in vitro anticancer screen (SRB); assay type: cell-based, human; settings: Leukemia, 48 h exposure
Method: as §1

[47] = test system: K-562; assay: NCI in vitro anticancer screen (SRB); assay type: cell-based, human; settings: Leukemia, 48 h exposure
Method: as §1

[48] = test system: ACHN; assay: NCI in vitro anticancer screen (SRB); assay type: cell-based, human; settings: Renal, 48 h exposure
Method: as §1

[49] = test system: SN12C; assay: NCI in vitro anticancer screen (SRB); assay type: cell-based, human; settings: Renal, 48 h exposure
Method: as §1

[50] = test system: MCF7; assay: NCI in vitro anticancer screen (SRB); assay type: cell-based, human; settings: Breast, 48 h exposure
Method: as §1

[51] = test system: sixty human tumor cells derived from nine cancer types; assay: NCI in vitro anticancer screen (SRB), whole panel; assay type: cell-based; settings: human tumor cell lines; 48 h drug exposure, SRB
Method: as §1

Structure (SMILES): C=C1C[C@H]2C=Nc3cc(OCCCOc4cc5c(cc4OC)C(=O)N4CC(=C)C[C@H]4C=N5)c(OC)cc3C(=O)N2C1 [SJG-136]
- ΔTm after incubation at 37° C. for 0 h [1]: 25 °C

Structure (SMILES): COc1cc2c(cc1OCCCN1CCN(CCCOc3cc4c(cc3OC)C(=O)N3CC(F)(F)C[C@H]3C=N4)CC1)N=C[C@@H]1CC(F)(F)CN1C2=O [IXd, 1,1′-{[(bispropane-1,N-diyl)piperazine]dioxy}bis[(11aS)-2-2-difluoro-7-methoxy-1,2,3,11a-tetrahydro-5H-pyrrolo[2,1-c][1,4]benzodiazepine-5-one]]
- ΔTm after incubation at 37° C. for 0 h [2]: 11.0 °C
- GI50 [3]: 7.3 µM
- GI50 [4]: 2.6 µM
- GI50 [5]: 4.1 µM
- GI50 [6]: 5.52 µM
- GI50 [7]: 0.8 µM
- GI50 [8]: 3.17 µM
- GI50 [9]: 1.86 µM
- GI50 [10]: 3.05 µM
- GI50 [11]: 4.28 µM
- GI50 [12]: 3.25 µM
- GI50 [13]: 2.94 µM
- GI50 [14]: 6.3 µM
- GI50 [15]: 4.08 µM
- GI50 [16]: 2.43 µM
- GI50 [17]: 6.14 µM
- GI50 [18]: 1.96 µM
- GI50 [19]: 1.89 µM
- GI50 [20]: 3.31 µM
- GI50 [21]: 3 µM
- GI50 [22]: 2.61 µM
- GI50 [23]: 1.95 µM
- GI50 [24]: 3.09 µM
- GI50 [25]: 3.06 µM
- GI50 [26]: 5.4 µM
- GI50 [27]: 4.38 µM
- GI50 [28]: 2.14 µM
- GI50 [29]: 2.8 µM
- GI50 [30]: 1.92 µM
- GI50 [31]: 3.25 µM
- GI50 [32]: 1.14 µM
- GI50 [33]: 3.63 µM
- GI50 [34]: 0.9 µM
- GI50 [35]: 3.59 µM
- GI50 [36]: 2.2 µM
- GI50 [37]: 3.17 µM
- GI50 [38]: 8.64 µM
- GI50 [39]: 1.38 µM
- GI50 [40]: 3.61 µM
- GI50 [41]: 1.18 µM
- GI50 [42]: 3.83 µM
- GI50 [43]: 3.36 µM
- GI50 [44]: 3.57 µM
- GI50 [45]: 3.55 µM
- GI50 [46]: 2.02 µM
- GI50 [47]: 1.7 µM
- GI50 [48]: 5.64 µM
- GI50 [49]: 4.05 µM
- GI50 [50]: 2.09 µM
- Log10 GI50 mean graph midpoint (MG_MID) [51]: −5.41
- Log10 LC50 mean graph midpoint (MG_MID) [51]: −4.2
- Log10 TGI mean graph midpoint (MG_MID) [51]: −4.79

Structure (SMILES): COc1cc2c(cc1OCCCCN1CCN(CCCCOc3cc4c(cc3OC)C(=O)N3CC(F)(F)C[C@H]3C=N4)CC1)N=C[C@@H]1CC(F)(F)CN1C2=O [IXe, 1,1′-{[(bisbutane-1,N-diyl)piperazine]dioxy}bis[(11aS)-2-2-difluoro-7-methoxy-1,2,3,11a-tetrahydro-5H-pyrrolo[2,1-c][1,4]benzodiazepine-5-one]]
- ΔTm after incubation at 37° C. for 0 h [2]: 14.0 °C

Structure (SMILES): COc1cc2c(cc1OCCCOc1cc3c(cc1OC)C(=O)N1CCC[C@H]1C=N3)N=C[C@@H]1CCCN1C2=O [DSB-120, reference compound]
- ΔTm after incubation at 37° C. for 0 h [2]: 10.2 °C

From patent publication US8383618B2, “C2-fluoro substituted piperazine linked pyrrolo[2,1-C][1,4] benzodiazepine dimers and a process for the preparation thereof” (Council of Scientific & Industrial Research, priority 2008, dated 2013)
